The source of these data is ChEMBL document CHEMBL5252515, “Discovery of 6-Amino-2-{[(1S)-1-methylbutyl]oxy}-9-[5-(1-piperidinyl)pentyl]-7,9-dihydro-8H-purin-8-one (GSK2245035), a Highly Potent and Selective Intranasal Toll-Like Receptor 7 Agonist for the Treatment of Asthma” (J Med Chem, 2016).

What all share (type): cell-based
Experiment [1] addresses T1, Toll-like receptor 7 (Homo sapiens, UniProt Q9NYK1).
T1 sequence (Q9NYK1 whole entry): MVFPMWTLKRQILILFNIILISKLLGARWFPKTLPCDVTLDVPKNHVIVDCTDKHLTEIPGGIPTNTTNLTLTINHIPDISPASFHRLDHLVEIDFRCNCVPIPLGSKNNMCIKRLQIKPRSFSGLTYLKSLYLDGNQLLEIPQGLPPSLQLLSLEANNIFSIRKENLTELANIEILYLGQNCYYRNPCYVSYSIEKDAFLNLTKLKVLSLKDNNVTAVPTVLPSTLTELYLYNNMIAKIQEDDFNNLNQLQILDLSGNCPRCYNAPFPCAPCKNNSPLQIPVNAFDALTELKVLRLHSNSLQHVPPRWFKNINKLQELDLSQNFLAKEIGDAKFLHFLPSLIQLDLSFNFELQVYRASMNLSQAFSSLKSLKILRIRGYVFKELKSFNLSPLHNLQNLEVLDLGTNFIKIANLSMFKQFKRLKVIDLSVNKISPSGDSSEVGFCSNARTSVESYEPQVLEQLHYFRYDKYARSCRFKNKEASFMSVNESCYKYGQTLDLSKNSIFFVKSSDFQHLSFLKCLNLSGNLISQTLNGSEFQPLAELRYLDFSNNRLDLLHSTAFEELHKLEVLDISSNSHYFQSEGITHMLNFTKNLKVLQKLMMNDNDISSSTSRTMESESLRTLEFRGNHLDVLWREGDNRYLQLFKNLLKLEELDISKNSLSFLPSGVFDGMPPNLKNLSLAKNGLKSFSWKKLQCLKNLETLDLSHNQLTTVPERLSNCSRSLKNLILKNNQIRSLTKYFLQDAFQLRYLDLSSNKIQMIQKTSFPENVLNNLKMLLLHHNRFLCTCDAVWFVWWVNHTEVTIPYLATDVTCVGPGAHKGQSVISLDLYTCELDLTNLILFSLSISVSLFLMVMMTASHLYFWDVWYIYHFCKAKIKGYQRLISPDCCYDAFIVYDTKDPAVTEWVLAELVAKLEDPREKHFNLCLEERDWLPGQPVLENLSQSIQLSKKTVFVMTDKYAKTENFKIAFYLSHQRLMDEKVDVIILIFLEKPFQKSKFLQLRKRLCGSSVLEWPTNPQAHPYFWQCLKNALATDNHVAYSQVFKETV
Kind of experiment: Agonist activity at TLR7 in cryopreserved human PBMC assessed as IFN-alpha production after 24 hrs by MSD assay.

For experiment [2], the target named is T1, Toll-like receptor 7. The experiment can be described thus: Agonist activity at TLR7 in human PBMC assessed as IFN-alpha production after 24 hrs by electrochemiluminescence assay.
The target of experiment [3] is T1, Toll-like receptor 7. Kind of experiment: Agonist activity at TLR7 in human PBMC assessed as TNF-alpha production after 24 hrs by electrochemiluminescence assay.

Consider `CCCCOc1nc(N)c2[nH]c(=O)n(CCCC3CCOCC3)c2n1`, for which the EC50 in experiment [1] is 63.1 nM.
For the compound `CCCCOc1nc(N)c2[nH]c(=O)n(CCC3CCOCC3)c2n1`, the EC50 in experiment [1] is 200 nM.
With `CCCCOc1nc(N)c2[nH]c(=O)n(CCCCC3CCCOC3)c2n1` (stereo not given), the EC50 in experiment [1] is 39.8 nM.
With `CCCCOc1nc(N)c2[nH]c(=O)n(CCCCC3CCCNC3)c2n1` (stereo not given), the EC50 in experiment [2] was 2.51 nM; in experiment [3], 1000 nM.
For `CCCCOc1nc(N)c2[nH]c(=O)n(CCCCCCC3CCOCC3)c2n1`, the EC50 in experiment [1] is 794 nM.
In the case of `CCCCOc1nc(N)c2[nH]c(=O)n(CCCCC3CCNCC3)c2n1`, the EC50 in experiment [2] was 0.631 nM; in experiment [3], 631 nM.
Regarding `CCCCOc1nc(N)c2[nH]c(=O)n(CCCCC3CCCCO3)c2n1` (stereo not given), the EC50 in experiment [1] was 316 nM.
With `CCCCOc1nc(N)c2[nH]c(=O)n(CCN3CCCCC3)c2n1`, the EC50 in experiment [1] is 2510 nM.
Take `CCCCOc1nc(N)c2nc(O)n(Cc3ccccc3)c2n1`: the EC50 in experiment [1] is 126 nM.
For `CCCCOc1nc(N)c2[nH]c(=O)n(CCCCN3CCCCC3)c2n1`, the EC50 in experiment [2] is 6.31 nM; in experiment [3] it was 6310 nM.
Turning to `CCCCOc1nc(N)c2[nH]c(=O)n(CCCCC3CCN(C(C)C)CC3)c2n1`, the EC50 in experiment [2] was 0.794 nM; in experiment [3], 6310 nM.
In the case of `CCC[C@H](C)Oc1nc(N)c2[nH]c(=O)n(CCCCN3CCCCC3)c2n1`, the EC50 in experiment [2] was 0.794 nM; in experiment [3] it was 2510 nM.
Take `CCCCOc1nc(N)c2[nH]c(=O)n(CCCCC3CCCO3)c2n1` (stereo not given): in experiment [1], the EC50 is 158 nM.
In the case of `CCCCOc1nc(N)c2[nH]c(=O)n(CCCCC3CCOC3)c2n1` (stereo not given), the half-maximal effective concentration (EC50) in experiment [1] is 63.1 nM.
With `CCCCOc1nc(N)c2[nH]c(=O)n(CCCCCN3CCCCC3)c2n1`, the EC50 is 7.94 nM in experiment [2] and 5010 nM in experiment [3].
As for `CCC[C@H](C)Oc1nc(N)c2[nH]c(=O)n(CCCCC3CCOCC3)c2n1`, the values for the EC50 in experiment [2] and in experiment [3] were 39.8 nM and 126 nM, respectively.
For the compound `CC[C@H](C)Oc1nc(N)c2[nH]c(=O)n(CCCCCN3CCCCC3)c2n1`, the results for the EC50 in experiment [2] and in experiment [3] were 0.501 nM and 10000 nM, respectively.
Regarding `CCCCOc1nc(N)c2[nH]c(=O)n(CCCCN3CCN(C(C)C)CC3)c2n1`, the figures for the EC50 in experiment [2] and in experiment [3] were 2.51 nM and 6310 nM, respectively.
Take `CCCCOc1nc(N)c2[nH]c(=O)n(CCCCCCN3CCCCC3)c2n1`: the EC50 in experiment [2] was 1.58 nM; in experiment [3] it was 2000 nM.
On to `CCCCOc1nc(N)c2nc(O)n(CCCN3CCCCC3)c2n1`, for which the EC50 in experiment [1] was 316 nM.
For the compound `CCCCOc1nc(N)c2[nH]c(=O)n(CCCCCC3CCOCC3)c2n1`, in experiment [1], the half-maximal effective concentration (EC50) was 50.1 nM.
With `CCCCOc1nc(N)c2[nH]c(=O)n(CCCCN3CCCCCC3)c2n1`, the EC50 was 1.58 nM in experiment [2] and 6310 nM in experiment [3].
`CCCCOc1nc(N)c2[nH]c(=O)n(CCCCN3CCOCC3)c2n1`: the EC50 is 200 nM in experiment [2] and 3980 nM in experiment [3].
As to `Nc1nc(OC2CCCC2)nc2c1[nH]c(=O)n2CCCCN1CCCCC1`, the results for the EC50 in experiment [2] and in experiment [3] were 1000 nM and 12600 nM, respectively.
As to `CCCCOc1nc(N)c2[nH]c(=O)n(CCCCC3CCOCC3)c2n1`, the EC50 in experiment [1] was 100 nM.
In the case of `CCCCOc1nc(N)c2[nH]c(=O)n(CCCCN3CCCC3)c2n1`, the EC50 in experiment [2] was 20 nM; in experiment [3] it was 15800 nM.
Taken in the same sequence, the figures for `CCCC[C@H](C)Oc1nc(N)c2[nH]c(=O)n(CCCCN3CCCCC3)c2n1` were 0.631 nM and 2510 nM.
In the case of `CC(C)Oc1nc(N)c2[nH]c(=O)n(CCCCCN3CCCCC3)c2n1`, the half-maximal effective concentration (EC50) in experiment [2] was 1 nM; in experiment [3], 12600 nM.
For `CCCCOc1nc(N)c2[nH]c(=O)n(CC3CCOCC3)c2n1`, in experiment [1], the EC50 was 200 nM.
